{"source": "ChEMBL document CHEMBL5728742", "about": "“Pyrrolo-pyridine derivative compound, method for preparing same, and pharmaceutical composition containing same as active ingredient for prevention or treatment of protein kinase-related diseases” (2021)", "biological_target": "Dual specificity tyrosine-phosphorylation-regulated kinase 1A (Homo sapiens, UniProt Q13627)", "experiment": "Then, DYRK1A kinase was added thereto, followed by mixing well. Each compound of Examples was added thereto by using acoustic technology (Echo550; nanoliter range). […] After reacting at room temperature for 2 hours, spotting was performed on P81 exchange paper. Upon completion of the reaction, kinase activity was detected using a filter-binding method."}
{"compound": "CCNc1cc(Nc2cc(F)c(C(=O)NC3CCN(C)CC3)cc2OC)nc2[nH]cc(C(F)(F)F)c12", "values": [{"measurement": "IC50", "value": "> 100", "unit": "nM"}]}
